Converted amounts (≈) assume the structure as drawn. Where two headings read alike, the source gives them in different places.
Columns and labels:
S. aureus ATCC25923 [1] = experiment: MIC determination by 2-fold microdilution, resazurin method; format: cell-based, Staphylococcus aureus; conditions: S. aureus ATCC25923, single drug; for MIC: Staphylococcus aureus
[2] = molecular target: T1, S. aureus FtsZ protein (FtsZSa) (Staphylococcus aureus, UniProt P0A031); experiment: In vitro FtsZ GTPase activity (PK/LDH coupled assay); format: biochemical; design: Residual GTPase activity: concentration or dose not given beside the values; conditions: S. aureus FtsZ protein
T1 construct: made in house; host or cells: Escherichia coli BL21DE3
T1 sequence (P0A031 1-390): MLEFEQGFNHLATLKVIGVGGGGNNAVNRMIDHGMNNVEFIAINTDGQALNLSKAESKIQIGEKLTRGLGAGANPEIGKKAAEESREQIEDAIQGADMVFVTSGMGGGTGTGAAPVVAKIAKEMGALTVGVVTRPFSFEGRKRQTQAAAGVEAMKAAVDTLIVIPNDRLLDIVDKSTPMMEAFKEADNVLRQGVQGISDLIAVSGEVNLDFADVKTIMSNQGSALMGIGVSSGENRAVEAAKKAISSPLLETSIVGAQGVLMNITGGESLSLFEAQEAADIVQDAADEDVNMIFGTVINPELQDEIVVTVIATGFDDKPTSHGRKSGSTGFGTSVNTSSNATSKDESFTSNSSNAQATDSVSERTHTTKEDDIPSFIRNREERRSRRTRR
Description: In vitro FtsZ GTPase activity
FtsZSa and FtsZPa were expressed and purified as previously described.13,14 GTPase activity was assayed at 30°C using a pyruvate kinase–L-lactic dehydrogenase (PK/LDH) spectrophotometric coupled assay, as previously described15 with minor modification. The reaction mixture was first set up to contain 50 mM MES […]
phosphoenolpyruvate, and 4.8 μM of FtsZ. The assay was initiated by the addition of 1 mM GTP. The experiments were performed in triplicate. The inhibitory concentration that reduced the enzymatic activity by half (IC50) was determined using Prism 10. […]

FtsZSa [3] = molecular target: T2, FtsZSa (Staphylococcus aureus, UniProt P0A031); experiment: FtsZSa polymerization, sedimentation assay; conditions: sedimentation assay of C11 derivatives
T2 sequence (P0A031 1-390): T1 sequence (P0A031 1-390)

FtsZSa [4] = molecular target: T2, FtsZSa; experiment: FtsZSa polymerization, 90° light scattering
S. aureus ATCC25923 [5] = experiment: Checkerboard assay of C11 with antibiotics; format: cell-based; conditions: antibiotic combined with C11
[6] = system: S. aureus cystic fibrosis clinical isolates; experiment: MIC for CF clinical isolates; format: cell-based
mammalian tubulin = experiment: Tubulin polymerization assay, fluorescence based; format: biochemical; conditions: 10 μM; DMSO control 3.78
S. aureus = conditions: cited from earlier work
[7] = system: Mycobacterium tuberculosis; design: method as in PMID 21126020; conditions: cited from earlier work

COC(=O)c1ccc(CSc2ccc(-c3ccc4c(c3)OCO4)nn2)o1 [C1]
MIC S. aureus (S. aureus ATCC25923 [1]): ≥ 256 µg/mL | Residual GTPase activity [2]: 78.5%

CC(O)c1ccc(C2(CNC(=O)c3ccc(C(F)(F)F)nc3)CCCC2)s1 (centres unmarked) [C2]
MIC S. aureus (S. aureus ATCC25923 [1]): ≥ 256 µg/mL | Residual GTPase activity [2]: 35.5%

COc1ccccc1-c1cc(C(=O)NCC(N)=O)[nH]n1 [C5]
MIC S. aureus (S. aureus ATCC25923 [1]): ≥ 256 µg/mL | Residual GTPase activity [2]: 95.3%

NC(=O)c1cc(OC2CN(C(=O)Nc3ccccc3F)C2)ccn1 [C6]
MIC S. aureus (S. aureus ATCC25923 [1]): ≥ 256 µg/mL | Residual GTPase activity [2]: 92.8%

COc1ccc(CC(=O)Nc2cccc(C(N)=O)c2)cc1 [C8]
MIC S. aureus (S. aureus ATCC25923 [1]): ≥ 256 µg/mL | IC50 [2]: 8.4 µM | Residual GTPase activity [2]: 11.8%

Cc1ccc(-c2nnc(Nc3cccc(O)c3)c3ccccc23)cc1S(N)(=O)=O [C9]
MIC S. aureus (S. aureus ATCC25923 [1]): ≥ 256 µg/mL | Residual GTPase activity [2]: 34.3%

O=C(Oc1ccc(NC2=NS(=O)(=O)c3ccccc32)cc1)c1ccccc1 [C11.1]
Activity on FtsZSa polymerization (FtsZSa [3]): mild activity | MIC (S. aureus ATCC25923 [1]): ≥ 128 µg/mL | IC50 (FtsZSa [4]): 71.7 µM

O=S1(=O)C=C(Sc2nnc(-c3ccccc3)o2)c2ccccc21 [C11.2]
MIC (S. aureus ATCC25923 [1]): 8 µg/mL (≈ 23.4 µM) | IC50 (FtsZSa [4]): 23.7 µM

O=S1(=O)N=C(Nc2nc3c(s2)CCCC3)c2ccccc21 [C11.3]
MIC (S. aureus ATCC25923 [1]): ≥ 128 µg/mL

CCOc1ccc(NC(=O)CN2C(=O)c3ccccc3S2(=O)=O)cc1 [C11.4]
MIC (S. aureus ATCC25923 [1]): ≥ 128 µg/mL | IC50 (FtsZSa [4]): 41.9 µM

O=S1(=O)N=C(Nc2nc(-c3ccccc3)cs2)c2ccccc21 [C11.5]
MIC S. aureus (S. aureus ATCC25923 [1]): ≥ 128 µg/mL | MIC (S. aureus ATCC25923 [1]): ≥ 128 µg/mL | IC50 (FtsZSa [4]): 34.6 µM

O=C(c1ccco1)N1CCN(C2=NS(=O)(=O)c3ccccc32)CC1 [C11.6]
MIC (S. aureus ATCC25923 [1]): ≥ 128 µg/mL

CCc1sc(NC2=NS(=O)(=O)c3ccccc32)nc1-c1ccccc1 [C11.7]
MIC S. aureus (S. aureus ATCC25923 [1]): 8 µg/mL (≈ 21.7 µM) | MIC (S. aureus ATCC25923 [1]): 8 µg/mL (≈ 21.7 µM) | IC50 (FtsZSa [4]): 29.4 µM

Cc1occc1-c1nnc(SC2=CS(=O)(=O)c3ccccc32)o1 [C11.8]
MIC (S. aureus ATCC25923 [1]): 128 µg/mL (≈ 370 µM) | IC50 (FtsZSa [4]): 41.6 µM

O=S1(=O)N=C(Nc2nnc(SCc3ccccc3Cl)s2)c2ccccc21 [C11.9]
MIC (S. aureus ATCC25923 [1]): 128 µg/mL (≈ 303 µM)

O=C(CSc1nnc(NC2=NS(=O)(=O)c3ccccc32)s1)Nc1ccc(Cl)cc1 [C11.10]
MIC (S. aureus ATCC25923 [1]): ≥ 128 µg/mL

Cc1ccc(-c2nnc(SC3=CS(=O)(=O)c4ccccc43)o2)cc1 [C11.11]
MIC (S. aureus ATCC25923 [1]): ≥ 128 µg/mL

O=C(CN1C(=O)c2ccccc2S1(=O)=O)Nc1nc(-c2ccccc2)cs1 [C11.12]
MIC (S. aureus ATCC25923 [1]): ≥ 128 µg/mL

CC(C)(O/N=C(\C(=O)N[C@@H]1C(=O)N2C(C(=O)[O-])=C(C[n+]3ccccc3)CS[C@H]12)c1csc(N)n1)C(=O)O [Ceftazidime, reference compound]
Effect of the combination with C11 (S. aureus ATCC25923 [5]): synergistic effect | MIC (S. aureus ATCC25923 [1]): 16 µg/mL (≈ 29.3 µM)

CC[C@H]1OC(=O)[C@H](C)[C@@H](O[C@H]2C[C@@](C)(OC)[C@@H](O)[C@H](C)O2)[C@H](C)[C@@H](O[C@@H]2O[C@H](C)C[C@H](N(C)C)[C@H]2O)[C@](C)(O)C[C@@H](C)C(=O)[C@H](C)[C@@H](O)[C@]1(C)O [Erythromycin, reference compound]
Effect of the combination with C11 (S. aureus ATCC25923 [5]): additive effect | MIC (S. aureus ATCC25923 [1]): 0.5 µg/mL (≈ 0.681 µM)

CC(=O)NC[C@H]1CN(c2ccc(N3CCOCC3)c(F)c2)C(=O)O1 [Linezolid, reference compound]
Effect of the combination with C11 (S. aureus ATCC25923 [5]): additive effect | MIC (S. aureus ATCC25923 [1]): 2 µg/mL (≈ 5.93 µM)

C[C@@H](O)[C@H]1C(=O)N2C(C(=O)O)=C(S[C@@H]3CN[C@H](C(=O)N(C)C)C3)[C@H](C)[C@H]12 [Meropenem, reference compound]
Effect of the combination with C11 (S. aureus ATCC25923 [5]): synergistic effect | MIC ([6]; S. aureus BG8 MRSA, single drug): 2 µg/mL (≈ 5.22 µM) | MIC ([6]; S. aureus BG10 MRSA, single drug): 16 µg/mL (≈ 41.7 µM) | MIC ([6]; Staphylococcus aureus, MRSA, S. aureus BG6 MRSA, read-out: MIC): 4 µg/mL (≈ 10.4 µM) | MIC ([6]; Staphylococcus aureus, MRSA, S. aureus BG7 MRSA smv, read-out: MIC): 2 µg/mL (≈ 5.22 µM) | MIC ([6]; Staphylococcus aureus, MRSA, S. aureus BG8 MRSA, single drug, read-out: MIC): 2 µg/mL (≈ 5.22 µM) | MIC ([6]; Staphylococcus aureus, MRSA, S. aureus BG10 MRSA, single drug, read-out: MIC): 16 µg/mL (≈ 41.7 µM) | MIC ([6]; Staphylococcus aureus, S. aureus BG1, read-out: MIC): 0.5 µg/mL (≈ 1.3 µM) | MIC ([6]; Staphylococcus aureus, S. aureus BG2, read-out: MIC): 0.5 µg/mL (≈ 1.3 µM) | MIC ([6]; Staphylococcus aureus, S. aureus BG3, read-out: MIC): 0.25 µg/mL (≈ 0.652 µM) | MIC ([6]; Staphylococcus aureus, S. aureus BG4, read-out: MIC): 0.25 µg/mL (≈ 0.652 µM) | MIC ([6]; Staphylococcus aureus, S. aureus BG5, read-out: MIC): 0.25 µg/mL (≈ 0.652 µM) | MIC (S. aureus ATCC25923 [1]): 0.25 µg/mL (≈ 0.652 µM)

CC(=O)O[C@H]1C(=O)[C@@]2(C)[C@H]([C@H](OC(=O)c3ccccc3)[C@]3(O)C[C@H](OC(=O)[C@H](O)[C@@H](NC(=O)c4ccccc4)c4ccccc4)C(C)=C1C3(C)C)[C@]1(OC(C)=O)CO[C@@H]1C[C@@H]2O [Paclitaxel, paclitaxel, reference compound]
Vmax of tubulin polymerization (mammalian tubulin): 21.45 mOD/min

CO[C@H]1/C=C/O[C@@]2(C)Oc3c(C)c(O)c4c(O)c(c(/C=N/N5CCN(C)CC5)c(O)c4c3C2=O)NC(=O)/C(C)=C\C=C\[C@H](C)[C@H](O)[C@@H](C)[C@@H](O)[C@@H](C)[C@H](OC(C)=O)[C@@H]1C [Rifampicin, reference compound]
Effect of the combination with C11 (S. aureus ATCC25923 [5]): synergistic effect | MIC (S. aureus ATCC25923 [1]): 0.03 µg/mL (≈ 0.0365 µM)

NC(=O)c1c(F)ccc(OCc2nc3cc(C(F)(F)F)cnc3s2)c1F [TX707]
MIC S. aureus (S. aureus; ref 19−22): 0.25 to 2 µg/mL

CN1CCC(C(=O)NC(=O)c2c(F)ccc(OCc3nc4cc(C(F)(F)F)cnc4s3)c2F)CC1 [TX709]
MIC S. aureus (S. aureus; ref 19−22): 2 to 4 µg/mL

CN(C)[C@@H]1C(O)=C(C(N)=O)C(=O)[C@@]2(O)C(O)=C3C(=O)c4c(O)cccc4[C@@](C)(O)[C@H]3C[C@@H]12 [Tetracycline, reference compound]
Effect of the combination with C11 (S. aureus ATCC25923 [5]): additive effect | MIC (S. aureus ATCC25923 [1]): 0.5 µg/mL (≈ 1.13 µM)

O=C(Oc1cc(OC(=O)c2ccc(O)c(Cl)c2)c2ccccc2c1)c1ccc(O)c(Cl)c1 [UCM53]
MIC S. aureus (S. aureus; ref 15−17): 2 to 8 µg/mL

Benzimidazole
MIC Mtb H3tRv [7]: 0.39 µg/mL

From paper PMC11998009, “Identification of a New FtsZ Inhibitor by Virtual Screening, Mechanistic Insights, and Structure–Activity Relationship Analyses” (ACS Infectious Diseases, 2025)
